{"source": "patent US6646001B2", "about": "“Use of non-steroidal anti-inflammatory agents in combination with prostaglandin FP receptor agonists to treat glaucoma and ocular hypertension” (Alcon Manufacturing, Ltd., priority 1997, dated 2003)", "experiment": "nepafenac concentration in ocular tissues of rabbits following a single topical dose", "assay_type": "in vivo", "settings": "topical ocular administration of 0.3% nepafenac, simple formulation without penetration enhancers", "experimental": "The estimated concentration within the anterior chamber following topical ocular administration of 0.3% nepafenac to rabbits is 24 μM (see FIGS. 1 and 2). This concentration, achieved using a simple formulation without penetration enhancers, is in excess of the parent compounds' COX I and COX II IC50s. This enhanced bioavailability provides a significant advantage and is unexpected over other non-steroidal anti-inflammatory drugs as well as amide derivatives of non-steroidal anti-inflammatory drugs. The compounds disclosed in the '034 patent, the contents of which are incorporated herein by reference, are ester and amide derivatives of 3-benzoylphenylacetic acid.", "data": [{"smiles": "NC(=O)Cc1cccc(C(=O)c2ccccc2)c1N", "note": "[nepafenac, 2-Amino-3-benzoyl-phenylacetamide]", "values": [{"measurement": "estimated concentration within the anterior chamber", "value": 24, "unit": "µM"}]}]}
